The source made the active and inactive calls. The calls are words filed in the database; no cut-off is given here.
Tests used:
[1] = Drug uptake in Wistar rat cerebrospinal fluid at 100 mg/kg, po measured 3 hrs post dose; assay type: ADME, organism-based; settings: read-out: Drug uptake
[2] = target: T1, Orexin/Hypocretin receptor type 1 (Rattus norvegicus) (UniProt P56718); assay: Insurmountable antagonist activity against rat orexin-1 receptor expressed in CHO cells assessed as calcium release at IC50 preincubated for 120 mins followed by addition of orexin-A by Cheng-Prusoff equation analysis; assay type: functional, cell-based
T1 sequence (whole entry): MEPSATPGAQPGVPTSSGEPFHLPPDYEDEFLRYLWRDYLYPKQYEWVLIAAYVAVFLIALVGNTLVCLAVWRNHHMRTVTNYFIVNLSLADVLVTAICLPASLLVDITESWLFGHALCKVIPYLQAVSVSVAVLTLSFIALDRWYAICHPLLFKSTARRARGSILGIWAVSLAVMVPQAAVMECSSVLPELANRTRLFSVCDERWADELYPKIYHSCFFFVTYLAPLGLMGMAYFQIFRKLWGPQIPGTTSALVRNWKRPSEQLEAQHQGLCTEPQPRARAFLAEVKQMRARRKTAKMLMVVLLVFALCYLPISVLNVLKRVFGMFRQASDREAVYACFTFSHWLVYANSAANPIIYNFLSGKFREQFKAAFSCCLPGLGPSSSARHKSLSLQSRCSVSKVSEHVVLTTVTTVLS

[3] = target: T2, Orexin receptor type 2 (Rattus norvegicus) (UniProt P56719); assay: Insurmountable antagonist activity against rat orexin-2 receptor expressed in CHO cells assessed as calcium release at IC50 preincubated for 120 mins followed by addition of orexin-A by Cheng-Prusoff equation analysis; assay type: functional, cell-based
T2 sequence (whole entry): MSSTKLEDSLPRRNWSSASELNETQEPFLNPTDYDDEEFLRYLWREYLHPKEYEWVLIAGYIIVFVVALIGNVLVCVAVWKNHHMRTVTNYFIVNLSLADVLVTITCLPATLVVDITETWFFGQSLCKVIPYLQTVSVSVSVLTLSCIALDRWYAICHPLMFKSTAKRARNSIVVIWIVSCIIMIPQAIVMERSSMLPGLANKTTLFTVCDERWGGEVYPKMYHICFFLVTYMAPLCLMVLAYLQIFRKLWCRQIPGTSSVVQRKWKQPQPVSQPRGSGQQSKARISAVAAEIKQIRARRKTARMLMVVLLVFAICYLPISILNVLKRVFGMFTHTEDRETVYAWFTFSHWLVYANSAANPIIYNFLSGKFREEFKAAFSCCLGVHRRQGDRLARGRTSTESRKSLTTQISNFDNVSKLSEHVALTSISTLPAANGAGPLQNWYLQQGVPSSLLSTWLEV

[4] = Fraction unbound in rat plasma; assay type: ADME, cell-free
[5] = Fraction unbound in rat brain; assay type: ADME, tissue-based
[6] = Ratio of drug level in brain to plasma of rat; assay type: ADME; settings: brain and plasma, read-out: BPR
[7] = tested on: Brain; assay: Free drug level in rat brain; assay type: ADME, tissue-based; settings: in vivo
[8] = target: T3, Orexin receptor type 2 (Homo sapiens, UniProt O43614); assay: Inhibition of human orexin-2 receptor expressed in CHO cells assessed as calcium release preincubated for 120 mins followed by addition of orexin-A by fluo-4 AM based-FLIPR analysis; assay type: functional, cell-based
T3 sequence (O43614 whole entry): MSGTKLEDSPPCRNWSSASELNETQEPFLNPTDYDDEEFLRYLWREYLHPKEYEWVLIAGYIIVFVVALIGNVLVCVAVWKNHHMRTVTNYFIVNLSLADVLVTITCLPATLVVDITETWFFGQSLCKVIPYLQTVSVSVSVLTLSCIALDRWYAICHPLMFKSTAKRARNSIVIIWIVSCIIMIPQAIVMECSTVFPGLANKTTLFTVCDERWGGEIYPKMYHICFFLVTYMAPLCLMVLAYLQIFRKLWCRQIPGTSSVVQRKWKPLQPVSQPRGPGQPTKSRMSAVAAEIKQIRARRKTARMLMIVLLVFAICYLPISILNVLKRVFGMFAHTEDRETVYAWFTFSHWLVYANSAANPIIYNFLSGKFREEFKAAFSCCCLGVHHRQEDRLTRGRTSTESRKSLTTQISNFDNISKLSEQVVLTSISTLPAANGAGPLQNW

[9] = Intrinsic clearance in human liver microsomes at 1 uM; assay type: ADME; settings: read-out: CLH
[10] = Intrinsic clearance in rat liver microsomes at 1 uM; assay type: ADME; settings: read-out: CLH
[11] = target: T4, Orexin/Hypocretin receptor type 1 (Homo sapiens, UniProt O43613); assay: Inhibition of human orexin-1 receptor expressed in CHO cells assessed as calcium release preincubated for 120 mins followed by addition of orexin-A by fluo-4 AM based-FLIPR analysis; assay type: functional, cell-based
T4 sequence (O43613 whole entry): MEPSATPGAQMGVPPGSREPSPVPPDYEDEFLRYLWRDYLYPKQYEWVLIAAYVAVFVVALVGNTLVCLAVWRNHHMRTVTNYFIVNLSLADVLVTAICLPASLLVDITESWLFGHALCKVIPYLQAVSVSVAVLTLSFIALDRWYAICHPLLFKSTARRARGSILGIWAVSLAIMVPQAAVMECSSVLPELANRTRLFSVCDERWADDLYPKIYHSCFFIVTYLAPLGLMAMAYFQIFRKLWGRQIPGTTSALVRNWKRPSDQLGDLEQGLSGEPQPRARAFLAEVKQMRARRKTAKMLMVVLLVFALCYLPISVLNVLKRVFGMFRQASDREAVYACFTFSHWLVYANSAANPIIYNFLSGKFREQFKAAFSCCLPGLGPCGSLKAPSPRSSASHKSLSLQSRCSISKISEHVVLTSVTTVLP

[12] = target: T5, Orexin/Hypocretin receptor type 1 (Homo sapiens) (UniProt O43613); assay: Insurmountable antagonist activity against human orexin-1 receptor expressed in CHO cells assessed as calcium release at IC50 preincubated for 120 mins followed by addition of orexin-A by Cheng-Prusoff equation analysis; assay type: functional, cell-based
T5 sequence (whole entry): T4 sequence (O43613 whole entry)

[13] = target: T6, Orexin receptor type 2 (Homo sapiens) (UniProt O43614); assay: Insurmountable antagonist activity against human orexin-2 receptor expressed in CHO cells assessed as calcium release at IC50 preincubated for 120 mins followed by addition of orexin-A by Cheng-Prusoff equation analysis; assay type: functional, cell-based
T6 sequence (whole entry): T3 sequence (O43614 whole entry)

[14] = target: T5, Orexin/Hypocretin receptor type 1 (Homo sapiens); assay: Competitive antagonist activity against human orexin-1 receptor expressed in CHO cells assessed as shift in orexin-A CRC at IC50 incubated for 120 mins in presence of orexin-A by Cheng-Prusoff equation analysis; assay type: cell-based
[15] = target: T6, Orexin receptor type 2 (Homo sapiens); assay: Competitive antagonist activity against human orexin-2 receptor expressed in CHO cells assessed as shift in orexin-A CRC at IC50 incubated for 120 mins in presence of orexin-A by Cheng-Prusoff equation analysis; assay type: cell-based
[16] = tested on: Rattus norvegicus; assay: Reduction in home cage activity in Wistar rat sleep model at 100 mg/kg, po administered as single dose during first 6 hrs of night active period post dose relative to vehicle control; assay type: functional; parameters: scale not given: the % may be the effect or the level left
[17] = tested on: Rattus norvegicus; assay: Sleep promoting effect in Wistar rat sleep model at 100 mg/kg, po administered as single dose during first 6 hrs of night active period post dose relative to vehicle control; assay type: functional, organism-based
[18] = target: T5, Orexin/Hypocretin receptor type 1 (Homo sapiens); assay: Inhibition of human orexin-1 receptor expressed in CHO cells assessed as time duration for Kb change preincubated for 120 mins followed by stimulation with orexin-A post compound washout by FLIPR assay; assay type: cell-based
[19] = target: T6, Orexin receptor type 2 (Homo sapiens); assay: Inhibition of human orexin-2 receptor expressed in CHO cells assessed as time duration for Kb change preincubated for 120 mins followed by stimulation with orexin-A post compound washout by FLIPR assay; assay type: cell-based
[20] = tested on: Rattus norvegicus; assay: Reduction in time spent in active wake state in Wistar rat sleep model at 100 mg/kg, po administered as single dose during first 6 hrs of night active period post dose relative to vehicle control; assay type: functional; parameters: scale not given: the % may be the effect or the level left
[21] = tested on: Rattus norvegicus; assay: Increase in time spent in quiet wake state in Wistar rat sleep model at 100 mg/kg, po administered as single dose during first 6 hrs of night active period post dose relative to vehicle control; assay type: functional
[22] = tested on: Rattus norvegicus; assay: Increase in time spent in non-rapid eye movement sleep in Wistar rat sleep model at 100 mg/kg, po administered as single dose during first 6 hrs of night active period post dose relative to vehicle control; assay type: functional
[23] = tested on: Rattus norvegicus; assay: Increase in time spent in rapid eye movement sleep in Wistar rat sleep model at 100 mg/kg, po administered as single dose during first 6 hrs of night active period post dose relative to vehicle control; assay type: functional
[24] = target: T5, Orexin/Hypocretin receptor type 1 (Homo sapiens); settings: CHO
Description: Inhibition of human orexin-1 receptor expressed in CHO cells assessed as occupancy half life preincubated for 120 mins followed by stimulation with orexin-A post compound washout measured at 0 to 30 mins by FLIPR assay

[25] = target: T6, Orexin receptor type 2 (Homo sapiens); settings: CHO
Description: Inhibition of human orexin-2 receptor expressed in CHO cells assessed as occupancy half life preincubated for 120 mins followed by stimulation with orexin-A post compound washout measured at 0 to 30 mins by FLIPR assay

COc1ccc(C[C@@H]2CCCN2C(=O)c2nc(C)sc2-c2ccc3c(c2)OCO3)cc1OC
concentration at 3 h [1]: 133 ng/mL | Kb [2]: 7.3 nM | Kb [3]: 1.7 nM | fraction unbound [4]: 0.027 | fraction unbound [5]: 0.04 | Kp [6]: 0.68 | Drug uptake(free) [7]: 60 nM | IC50 [8]: 6.6 nM | microsomal CLint at 1 µM [9]: 197 µL/min/mg | microsomal CLint at 1 µM [10]: > 1250 µL/min/mg | IC50 [11]: 11 nM | Kb [12]: 5.3 nM | Kb [13]: 1.4 nM | inhibition [14]: Active | inhibition [15]: Active | Activity [16]: 47% | Activity [17]: Active | TIME [18]: 0.0833 h | TIME [19]: 0.333 h | Activity [20]: -29% | Activity [21]: 17% | Activity [22]: 18% | Activity [23]: 84% | T1/2 [24]: 1.1 min | T1/2 [25]: 5.4 min

From ChEMBL document CHEMBL3739395, “Discovery and optimisation of 1-acyl-2-benzylpyrrolidines as potent dual orexin receptor antagonists” (Medchemcomm, 2015)
